# Results reported in US9789116B2, “Compositions and methods of modulating short-chain dehydrogenase activity” (CASE WESTERN RESERVE UNIVERSITY, priority 2013, dated 2017).
# Assays:
# [1] = test system: 15-PGDH mRNA; test: 15-PGDH mRNA levels in colon cancer cell lines by real-time PCR; format: cell-based; details: treated colon cancer cell lines, real-time PCR
# Source text: In these studies parental cell lines (not containing the 15-PGDH-luciferase reporter) are employed.
# [2] = test system: 15-PGDH-luciferase fusion reporter in V9m, LS174T and V503 cells; test: 15-PGDH-luciferase fusion gene reporter induction in colon cancer cell lines; format: cell-based; details: for luciferase activity of 15-PGDH luciferase fusion cells: V9m, LS174T, V503, various concentrations
# [3] = test system: A549 cells; test: PGE2 levels in medium of IL1-beta stimulated A549 cells; format: cell-based; details: for PGE2 induction compared with SW033291: 4 nM to 2500 nM
# [4] = molecular target: T1, recombinant 15-PGDH (Homo sapiens (Human), UniProt P15428); test: Inhibition of enzymatic activity of recombinant 15-PGDH in vitro (NADH generation); format: biochemical
# [5] = test system: cell culture; test: Toxicity in a cell culture assay (decrease of cell numbers); format: cell-based; details: concentration needed to decrease cell numbers in a cell culture assay
# Description: (§1) Time to inhibition refers to the time needed to inhibit the generation of NADH by 15-PGDH from the moment with drug is added into the reaction mix. Delta Tm refers to the shift in melting temperature of recombinant 15-PGDH in the presence of drug (with cofactor NADH also present). Concentration of Full Cell Line Reporter Induction refers to the concentration of drug that needs to be added to reporter cell line to achieve maximal induction of the 15-PGDH-luciferase gene fusion reporter cassette, as measured by luciferase assays. Hepatocyte stability refers to the half-life of compound in the presence of hepatocytes in culture. Toxicity refers to the concentration of compound needed to decrease cell numbers in a cell culture assay.
# [6] = test system: A549 cells; test: Cellular toxicity on A549 cells by CellTiter-Glo; format: cell-based; details: 24 hours, concentrations of up to 10 μM
# Description: FIGS. 38(A-C) show assays of cellular toxicity on A549 cells at 24 hours of 15-PGDH inhibitors as assayed by CellTiter-Glo measurement.
# [7] = molecular target: T1, recombinant 15-PGDH; test: Melting temperature shift of recombinant 15-PGDH (SYPRO Orange); format: binding
# [8] = Solubility in water; format: physicochemical; details: pH=3
# [9] = Chemical stability in aqueous solutions; format: physicochemical; details: over broad pH range
# [10] = test system: mice; test: Immediate toxicity in mice; format: in vivo; details: over 24 hours, IP 50 mg/kg body weight
# [11] = Stability with liver extracts; format: in vitro ADME; details: incubated with mouse, rat and human liver extracts
# [12] = test system: lethally irradiated mice; test: Homing of CFSE dye labeled bone marrow cells in lethally irradiated mice; format: in vivo, mouse
# Description: Drugs are administered following radiation, following the transplant, and again at 8 hours after the transplant.
# [13] = test system: mouse tissues (colon, bone marrow, liver, lung); test: PGE2 in mouse tissues after IP injection; format: in vivo
# Description: Shown is measurement by Elisa of PGE2 (ng PGE2/mg of tissue protein) from 4 mouse tissues: lung, liver, colon and bone marrow. […] Tissues were harvested for PGE2 assay at either 2 hour (2 h) or 3 hour (3 h) time points following drug injection.
# [14] = test system: wild-type mouse bone marrow; test: Hematopoietic colonies from bone marrow treated ex vivo; format: cell-based; details: 1 uM, ex vivo on ice 2 hours; compared with SW033291
# Source text: Treated marrow is again then plated into methylcellulose for counting of hematopoietic colonies.
# [15] = Hepatocyte stability; format: in vitro ADME; details: hepatocytes in culture; read-out: Hepatocyte stability T½
# Description: as §1
# T1 sequence (P15428 whole entry): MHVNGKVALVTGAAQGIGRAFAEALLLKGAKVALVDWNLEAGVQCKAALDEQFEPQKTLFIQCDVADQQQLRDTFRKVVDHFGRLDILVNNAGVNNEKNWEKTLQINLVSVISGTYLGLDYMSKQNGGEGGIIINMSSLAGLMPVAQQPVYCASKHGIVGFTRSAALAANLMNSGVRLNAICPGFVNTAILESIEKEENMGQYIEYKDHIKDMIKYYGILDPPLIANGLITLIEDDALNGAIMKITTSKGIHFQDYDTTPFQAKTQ
molecule,measurement,setting,value
O=C(c1ccc2nc(-c3ccccc3)c(-c3ccccc3)nc2c1)N1CCCCC1 [SW145753],15-PGDH mRNA levels,[1],do not in general alter 15-PGDH mRNA levels
same,luciferase activity of 15-PGDH luciferase fusion cells,[2],increase luciferase activity
same,15-PGDH activity in cells as reflected in PGE2 levels in medium,"[3]; IL1-beta 23 hours, compound added for the last 5 hours",clear inhibition of 15-PGDH activity in the cells
CCCC[S+]([O-])c1sc2nc(-c3nccs3)ccc2c1N (centres unmarked) [SW206992],Time to inhibition (10 nM),[4]; time needed to inhibit generation of NADH by 15-PGDH after drug is added,~2 min
same,Toxicity,[5],>7.5 µM
same,exposure needed for maximal reporter induction,"[2]; 24 hours, three cell line backgrounds",≥ 1000 nM
same,Concentration for Full Cell Line Reporter Induction,[2]; maximal induction of 15-PGDH-luciferase reporter,>1 µM
same,effect on CellTitre-Glo levels,[6],No effect
same,melting temperature,"[7]; 10 μM protein, 20 uM compound, 100 μM NAD(+), control 49",59 degrees
CCCC[S+]([O-])c1sc2nc(-c3nccs3)cc(-c3cnc(C)n3C)c2c1N (centres unmarked) [formula (XIII)],solubility,[8],1000 µg/mL
same,chemical stability in aqueous solutions,[9],chemically stable
same,concentration inhibiting recombinant 15-PGDH,[4]; enzyme concentration approximately 6 nM,3 nM
same,immediate toxicity,[10],no immediate toxicity
same,chemical stability with liver extracts,[11],chemically stable
same,homing of hematopoietic stem cells following bone marrow transplantation,[12]; 10 mg/kg body weight,increases homing
same,"PGE2 levels in colon, lung, liver and bone marrow",[13]; IP dose of 10 mg/kg body weight,elevates PGE2 levels
"CCCC[S+]([O-])c1sc2nc(-c3nccs3)cc(-c3nccs3)c2c1N (centres unmarked) [SW209124, 2-(butylsulfinyl)-4,6-di(thiazol-2-yl)thieno[2,3-b]pyridin-3-amine]",PGE2 induction compared with SW033291,[3],increased activity relative to SW033291
"CC(=O)OCCCCS(=O)(=O)c1sc2nc(-c3cccs3)cc(-c3ccccc3)c2c1N [SW209128, 4-((3-amino-4-phenyl-6-(thiophen-2-yl)thieno[2,3-b]pyridin-2-yl)sulfonyl)butyl acetate]",IC50,"[4]; read-out: Enzyme Inhibitor IC50 (nM) at 5 nM 15-PGDH, 5 nM recombinant human 15-PGDH",4910 nM
"CCCC[S+]([O-])c1sc2nc(-c3nccs3)cc(-c3nccn3C)c2c1N (centres unmarked) [SW209125, 2-(butylsulfinyl)-4-(1-methyl-1H-imidazol-2-yl)-6-(thiazol-2-yl)thieno[2,3-b]pyridin-3-amine]",PGE2 induction compared with SW033291,[3],increased activity relative to SW033291
CCCCC[C@H](O)/C=C/[C@H]1[C@H](O)CC(=O)[C@@H]1C/C=C\CCCC(=O)O [PGE2],increase in number of bone marrow derived colonies,[14],lesser increase
(+) SW209415,time of peak PGE2,"[13]; IP 0.5, 1.5 or 5 mg/kg",3 h
same,"induction of PGE2 in lung, liver, colon and bone marrow","[13]; IP 0.5, 1.5 or 5 mg/kg, 2 h and 3 h",induction of PGE2 in all 4 tissues tested
"CCCCC(C)(C)[C@H](O)/C=C/[C@H]1[C@H](O)CC(=O)[C@@H]1C/C=C\CCCC(=O)O [dmPGE2, 16,16-dimethyl PGE2]",increase in number of bone marrow derived colonies,[14],slightly greater increase
CCCC[S@](C)(O)c1sc2nc(-c3cccs3)cc(-c3ccccc3)c2c1N [SW033291 isomer B],IC50 lower than parent racemic mixture,[4],40%
same,concentration at which some residual activity is seen,"[2]; V9M, printed 'isomer B', context suggests isomer A",3.2 µM
same,concentration giving full activity in reporter,[2]; Vaco-9M (V9M),0.1 µM
same,melting temperature,"[7]; Differential Scanning Fluorimetry, shifted from 50.5° C.",68 °C
CCCC[S+]([O-])c1sc2nc(-c3cccs3)ccc2c1N (centres unmarked) [SW206980],Toxicity,[5],>7.5 µM
same,effect on CellTitre-Glo levels,[6],No effect
same,half-life,[15],1.33 h
"COc1ccc2c(c1)c(CC(=O)O)c(C)n2C(=O)c1ccc(Cl)cc1 [indomethacin, reference compound]",effect of SW033291 on homing in presence of COX inhibitor,[12]; SW033291 10 mg/kg IP plus Indomethacin,near completely blocked
COc1ccc(OC)c(N(CC(=O)Nc2cccnc2)S(=O)(=O)c2ccccc2)c1 [SW054384],15-PGDH mRNA levels,[1],do not in general alter 15-PGDH mRNA levels
same,luciferase activity of 15-PGDH luciferase fusion cells,[2],increase luciferase activity
same,PGE2 level in medium,"[3]; compound added 24 hours before IL1-beta, maintained next 26 hours",lower level of PGE2 produced
same,direct binding to 15-PGDH by melting temperature shift,"[7]; 10 μM and 100 μM cofactor (NAD, NADH)",cannot be demonstrated to bind 15-PGDH
